In patent US11919858B2, “Aminonapthoquinone compounds and pharmaceutical composition for blocking ubiquitination-proteasome system in diseases” (Calgent Biotechnology Co., Ltd., priority 2015, dated 2024):
Read-outs that look alike come from different tables or passages of the source.

Key:
MDA-MB-231 = assay: Growth inhibition assay; assay type: cell-based; conditions: Homo sapiens, MDA-MB-231; read-out: MDA-MB-231 GI50 (μM) Mean ± S.E.
Procedure: (§1) Cells were seeded in 96-well plastic plates and exposed to MPT0L056 for 48 hours. Cell viability was assessed using the 3-(4,5-dimethylthiazol-2-yl)-2,5-diphenyltetrazolium bromide assay. Growth inhibition was expressed as the percentage of surviving cells in drug-treated versus DMSO-treated control cells.
(§2) The compounds of the invention were subjected to growth inhibition assay.

Hep 3B = assay: Growth inhibition assay; assay type: cell-based; conditions: Homo sapiens, Hep3B; read-out: Hep3B GI50 (μM) Mean ± S.E.
Procedure: as §1, §2

HL-60 = assay: Growth inhibition assay; assay type: cell-based; conditions: HL-60; for IC50: Homo sapiens, read-out: HL-60 IC50 (μM) Mean ± S.E.
Procedure: as §1, §2

HCT-116 = assay: Growth inhibition assay; assay type: cell-based; conditions: Homo sapiens, HCT-116; read-out: HCT-116 GI50 (μM) Mean ± S.E.
Procedure: as §1, §2

[1] = system: HCT116 human colorectal adenocarcinoma
Procedure: MPT0L056 was used to evaluate for activity against the HCT116 human colorectal adenocarcinoma.
However, MPT0E028 was administered orally (p.o.) in 1.0% CMC and 0.5% Tween 80 and given dose at 25 mg/kg daily to end schedule.
Each animal was euthanized when the tumors reached the predetermined endpoint size of 1,000 mm^3. The time to endpoint (TTE) for each mouse was calculated by the following equation:
[formula] where TTE is expressed in days, endpoint volume is in mm^3, b is the intercept, and m is the slope of the line obtained by linear regression of a log-transformed tumor growth data set. The data set is comprised of the first observation that exceeded the study endpoint volume and the three consecutive observations that immediately preceded the attainment of the endpoint volume. The calculated TTE is usually less than the day on which an animal is euthanized for tumor size. […] An animal classified as having died from treatment-related (TR) causes or non-treatment-related metastasis (NTRm) causes was assigned a TTE value equal to the day of death. An animal classified as having died from non-treatment-related (NTR) causes was excluded from TTE calculations.
Treatment efficacy was determined from tumor growth delay (TGD), which is defined as the increase in the median TTE for a treatment group compared to the control group: TGD=T−C, expressed in days, or as a percentage of the median TTE of the control group:
[formula] where: • T=median TTE for a treatment group, • C=median TTE for control Group 1.
Treatment efficacy was also determined from the tumor volumes of animals remaining in the study on the last day, and from the number of regression responses. The MTV(n) is defined as the median tumor volume on D59 in the number of animals remaining, n, whose tumors have not attained the endpoint volume.
Treatment may cause a partial regression (PR) or a complete regression (CR) of the tumor in an animal. […] An animal with a CR at the termination of a study is additionally classified as a tumor-free survivor (TFS).
Animals were weighed daily for the first five days, then twice weekly until the completion of the study. The mice were examined frequently for overt signs of any adverse, drug-related side effects. Acceptable toxicity for the MTD of cancer drugs is defined as a group mean BW loss of 20% or less during the test, and not more than one TR death among ten animals. A death is classified as TR if there is evidence of treatment side effects from clinical signs and/or necropsy or from unknown causes during dosing period or within 10 days of the last dose. A death is classified as NTR if there is no evidence that the death was related to treatment side effects.
The logrank test was used to determine the statistical significance of the difference between the TTE values of two groups, except any NTR deaths. Statistical and graphical analyses were performed with Prism 3.03 (GraphPad) for Windows. The two-tailed statistical analyses were conducted at P=0.05. Kaplan-Meier plots show the percentage of animals remaining in the study versus time. The Kaplan-Meier plots use the same data set as the log rank test. The tumor growth curves show the group median tumor volume, on a log scale as a function of time.

[2] = Group 1 vs 2: MPT0E028 25 mg/kg
[3] = Group 2: MPT0E028 25 mg/kg po qd to endpoint

Structure (SMILES)	GI50 (MDA-MB-231)	GI50 (Hep 3B)	IC50 (HL-60)	GI50 (HCT-116)	further results
O=C(Nc1cccc2cccnc12)c1ccc(CNC2=C(Cl)C(=O)c3ccccc3C2=O)cc1 [MPT0L109, 4-((3-chloro-1,4-dioxo-1,4-dihydronaphthalen-2-ylamino)methyl)-N-(quinolin-8-yl)benzamide]	10 to 30 µM	10 to 30 µM	6.43 ± 2.44 µM	10 to 30 µM	
Cc1cc2cc(NC(=O)c3ccc(CNC4=C(Cl)C(=O)c5ccccc5C4=O)cc3)ccc2[nH]1 [MPT0L114, 4-((3-chloro-1,4-dioxo-1,4-dihydronaphthalen-2-ylamino)methyl)-N-(2-methyl-1H-indol-5-yl)benzamide]	10 to 30 µM	10 to 30 µM	10 to 30 µM	10 to 30 µM	
O=C(Nc1ccc2ncccc2c1)c1ccc(CNC2=C(Cl)C(=O)c3ccccc3C2=O)cc1 [MPT0L108, 4-((3-chloro-1,4-dioxo-1,4-dihydronaphthalen-2-ylamino)methyl)-N-(quinolin-6-yl)benzamide]	10 to 30 µM	10 to 30 µM	8.09 ± 0.57 µM	6.82 ± 0.35 µM	
O=C(Nc1cnc2ccccc2c1)c1ccc(CNC2=C(Cl)C(=O)c3ccccc3C2=O)cc1 [MPT0L110, 4-((3-chloro-1,4-dioxo-1,4-dihydronaphthalen-2-ylamino)methyl)-N-(quinolin-3-yl)benzamide]	10 to 30 µM	10 to 30 µM	7.93 ± 1.14 µM	10 to 30 µM	
O=C(Nc1nccs1)c1ccc(CNC2=C(Cl)C(=O)c3ccccc3C2=O)cc1 [MPT0L085, 4-(((3-chloro-1,4-dioxo-1,4-dihydronaphthalen-2-yl)amino)methyl)-N-(thiazol-2-yl)benzamide]	10 to 30 µM	10 to 30 µM	8.53 ± 0.55 µM	10 to 30 µM	
O=C(Nc1ccccc1)c1ccc(CNC2=C(Cl)C(=O)c3ccccc3C2=O)cc1 [MPT0L083, 4-(((3-chloro-1,4-dioxo-1,4-dihydronaphthalen-2-yl)amino)methyl)-N-phenylbenzamide]	10 to 30 µM	10 to 30 µM	10 to 30 µM	10 to 30 µM	
O=C(Nc1ccc(F)cc1)c1ccc(CNC2=C(Cl)C(=O)c3ccccc3C2=O)cc1 [MPT0L082]	10 to 30 µM	10 to 30 µM	10 to 30 µM	10 to 30 µM	
O=C(Nc1ccccn1)c1ccc(CNC2=C(Cl)C(=O)c3ccccc3C2=O)cc1 [MPT0L018, 4-(((3-chloro-1,4-dioxo-1,4-dihydronaphthalen-2-yl)amino)methyl)-N-(pyridin-2-yl)benzamide]	10 to 30 µM	10 to 30 µM	10 to 30 µM	10 to 30 µM	
Nc1ccn(C(=O)c2ccc(CNC3=C(Cl)C(=O)c4ccccc4C3=O)cc2)n1 [MPT0L094, 2-(4-(3-amino-1H-pyrazole-1-carbonyl)benzylamino)-3-chloronaphthalene-1,4-dione]	10 to 30 µM	10 to 30 µM		10 to 30 µM	HL-60 IC50 (μM) Mean ± S.E. (HL-60): 110~30 μM
O=C(Nc1cccnc1)c1ccc(CNC2=C(Cl)C(=O)c3ccccc3C2=O)cc1 [MPT0L055, 4-(((3-chloro-1,4-dioxo-1,4-dihydronaphthalen-2-yl)amino)methyl)-N-(pyridin-3-yl)benzamide]	10 to 30 µM	10 to 30 µM	10 to 30 µM	10 to 30 µM	
Cc1cc(NC(=O)c2ccc(CNC3=C(Cl)C(=O)c4ccccc4C3=O)cc2)c2ccccc2n1 [MPT0L112, 4-((3-chloro-1,4-dioxo-1,4-dihydronaphthalen-2-ylamino)methyl)-N-(2-methylquinolin-4-yl)benzamide]	8.12 ± 1.32 µM	10 to 30 µM	2.68 ± 0.03 µM	10 to 30 µM	
Cn1ccc2c(NC(=O)c3ccc(CNC4=C(Cl)C(=O)c5ccccc5C4=O)cc3)ncnc21 [MPT0L121, 4-((3-chloro-1,4-dioxo-1,4-dihydronaphthalen-2-ylamino)methyl)-N-(7-methyl-711-pyrrolo[2,3-d]pyrimidin-4-yl)benzamide]	10 to 30 µM	10 to 30 µM	2.68 ± 0.17 µM	10 to 30 µM	
O=C(Nc1ccncc1[N+](=O)[O-])c1ccc(CNC2=C(Cl)C(=O)c3ccccc3C2=O)cc1 [MPT0L103, 4-((3-chloro-1,4-dioxo-1,4-dihydronaphthalen-2-ylamino)methyl)-N-(3-nitropyridin-4-yl)benzamide]	10 to 30 µM	10 to 30 µM	5.42 ± 0.7 µM	6.12 ± 1.17 µM	
O=C(/C=C/c1ccc2c(c1)CCN2S(=O)(=O)c1ccccc1)NO [MPT0E028, reference compound]					Hazard Ratio [1, 2]: 3.677; Median survival [1, 2]: 40.5; Median survival Ratio [1, 2]: 0.5605; Hazard Ratio ([1]; Group 1 vs 7: 100/25 mg/kg): 1.43; Median survival ([1]; Group 1 vs 7: 100/25 mg/kg): 33.95; Median survival Ratio ([1]; Group 1 vs 7: 100/25 mg/kg): 0.6686; Hazard Ratio ([1]; Group 1 vs 8: 50/25 mg/kg): 3.433; Median survival ([1]; Group 1 vs 8: 50/25 mg/kg): 45.3; Median survival Ratio ([1]; Group 1 vs 8: 50/25 mg/kg): 0.5011; MTV (n) Day 59 [1, 3]: 454 mm^3; Median TTE [1, 3]: 40.5 days; T-C [1, 3]: 17.8 days; antitumor activity (logrank analysis) [1, 3]: produced significant antitumor activity; % TGD ([1]; Group 2: MPT0E028 25 mg/kg po qd to endpoint, 25 mg/kg): 78%; Logrank Significance ([1]; Group 2: MPT0E028 25 mg/kg po qd to endpoint, compared to Group 1): * (* = P < 0.05); Day of Max % BW Loss ([1]; mouse, in vivo, po, 25 mg/kg): 5 days; Max % BW Loss ([1]; mouse, in vivo, po, 25 mg/kg): −7.7%; No. of NTR ([1]; mouse, in vivo, po, 25 mg/kg): 0; No. of TR ([1]; mouse, in vivo, po, 25 mg/kg): 0
O=C(Nc1ccc2[nH]cnc2c1)c1ccc(CNC2=C(Cl)C(=O)c3ccccc3C2=O)cc1 [MPT0L093, N-(1H-benzo[d]imidazol-5-yl)-4-((3-chloro-1,4-dioxo-1,4-dihydronaphthalen-2-ylamino)methyl)benzamide]	10 to 30 µM	10 to 30 µM	10 to 30 µM	10 to 30 µM	
Cc1cnc(NC(=O)c2ccc(CNC3=C(Cl)C(=O)c4ccccc4C3=O)cc2)s1 [MPT0L098, 4-((3-chloro-1,4-dioxo-1,4-dihydronaphthalen-2-ylamino)methyl)-N-(5-methylthiazol-2-yl)benzamide]	10 to 30 µM	10 to 30 µM	7.06 ± 0.73 µM	10 to 30 µM	
O=C(Nc1cnccn1)c1ccc(CNC2=C(Cl)C(=O)c3ccccc3C2=O)cc1 [MPT0L076, 4-(((3-chloro-1,4-dioxo-1,4-dihydronaphthalen-2-yl)amino)methyl)-N-(pyrazin-2-yl)benzamide]	9.19 ± 0.4 µM	8.77 ± 0.9 µM	7.27 ± 2.98 µM	5.52 ± 0.66 µM	
Cc1cc(N)nn1C(=O)c1ccc(CNC2=C(Cl)C(=O)c3ccccc3C2=O)cc1 [MPT0L100, 2-(4-(3-amino-5-methyl-1H-pyrazole-1-carbonyl)benzylamino)-3-chloronaphthalene-1,4-dione]	10 to 30 µM	10 to 30 µM	10 to 30 µM	10 to 30 µM	
O=C(Nc1cccc2ncccc12)c1ccc(CNC2=C(Cl)C(=O)c3ccccc3C2=O)cc1 [MPT0L111, 4-((3-chloro-1,4-dioxo-1,4-dihydronaphthalen-2-ylamino)methyl)-N-(quinolin-5-yl)benzamide]	10 to 30 µM	10 to 30 µM	2.23 ± 0.27 µM	10 to 30 µM	
O=C(Nc1ccc2[nH]ccc2c1)c1ccc(CNC2=C(Cl)C(=O)c3ccccc3C2=O)cc1 [MPT0L113, 4-((3-chloro-1,4-dioxo-1,4-dihydronaphthalen-2-ylamino)methyl)-N-(1H-indol-5-yl)benzamide]	10 to 30 µM	10 to 30 µM	8.92 ± 0.39 µM	10 to 30 µM	
